Data as given in the NIST ThermoML archive (doi:10.1021/je700339f).

Experiment: xn = mol fraction of the nth substance listed
Settings: 298 K, Liquid

ClCCCl [1,2-dichloroethane] + CC(=O)N(C)C
mass density [kg/m3]
Settings | x2 = 0.0977 | x2 = 0.2003 | x2 = 0.2988 | x2 = 0.4022 | x2 = 0.4999 | x2 = 0.6007 | x2 = 0.7008 | x2 = 0.7988 | x2 = 0.8997
100 kPa | 1210 | 1174.4 | 1141.3 | 1107.9 | 1077.4 | 1047.1 | 1018.1 | 990.5 | 963.2
500 kPa | 1210.4 | 1174.8 | 1141.6 | 1108.2 | 1077.7 | 1047.4 | 1018.4 | 990.8 | 963.4
1000 kPa | 1210.9 | 1175.2 | 1142.1 | 1108.7 | 1078 | 1047.7 | 1018.7 | 991.1 | 963.8
1500 kPa | 1211.3 | 1175.6 | 1142.5 | 1109 | 1078.4 | 1048.1 | 1019.1 | 991.4 | 964.1
2000 kPa | 1211.8 | 1176 | 1142.9 | 1109.5 | 1078.8 | 1048.4 | 1019.4 | 991.8 | 964.4
2500 kPa | 1212.2 | 1176.5 | 1143.3 | 1109.9 | 1079.2 | 1048.8 | 1019.8 | 992 | 964.7
3000 kPa | 1212.6 | 1176.9 | 1143.8 | 1110.2 | 1079.6 | 1049.1 | 1020.1 | 992.4 | 965
3500 kPa | 1213.2 | 1177.3 | 1144.1 | 1110.6 | 1080 | 1049.5 | 1020.5 | 992.7 | 965.3
4000 kPa | 1213.6 | 1177.7 | 1144.6 | 1111 | 1080.4 | 1049.8 | 1020.9 | 993.1 | 965.6
4500 kPa | 1214 | 1178.2 | 1144.8 | 1111.5 | 1080.8 | 1050.1 | 1021.1 | 993.4 | 965.9
5000 kPa | 1214.5 | 1178.6 | 1145.4 | 1111.8 | 1081.1 | 1050.5 | 1021.5 | 993.7 | 966.2
5500 kPa | 1215 | 1179 | 1145.8 | 1112.2 | 1081.5 | 1050.8 | 1021.8 | 994 | 966.5
6000 kPa | 1215.4 | 1179.5 | 1146.1 | 1112.6 | 1081.8 | 1051.2 | 1022.1 | 994.3 | 966.9
6500 kPa | 1215.9 | 1179.9 | 1146.6 | 1113 | 1082.2 | 1051.6 | 1022.5 | 994.7 | 967.2
7000 kPa | 1216.3 | 1180.3 | 1147 | 1113.4 | 1082.6 | 1052 | 1022.8 | 995 | 967.5
7500 kPa | 1216.7 | 1180.7 | 1147.4 | 1113.8 | 1083 | 1052.3 | 1023.1 | 995.3 | 967.8
8000 kPa | 1217.2 | 1181.2 | 1147.8 | 1114.1 | 1083.3 | 1052.7 | 1023.5 | 995.6 | 968.1
8500 kPa | 1217.7 | 1181.5 | 1148.2 | 1114.5 | 1083.7 | 1053 | 1023.8 | 996 | 968.4
9000 kPa | 1218.1 | 1182 | 1148.6 | 1114.9 | 1084 | 1053.4 | 1024.2 | 996.3 | 968.8
9500 kPa | 1218.5 | 1182.4 | 1149 | 1115.3 | 1084.4 | 1053.8 | 1024.4 | 996.6 | 969
10000 kPa | 1219 | 1182.9 | 1149.5 | 1115.7 | 1084.8 | 1054.2 | 1024.8 | 996.9 | 969.4
10500 kPa | 1219.4 | 1183.3 | 1149.8 | 1116.1 | 1085.2 | 1054.5 | 1025.2 | 997.2 | 969.6
11000 kPa | 1219.9 | 1183.7 | 1150.3 | 1116.5 | 1085.6 | 1054.8 | 1025.5 | 997.6 | 970
11500 kPa | 1220.3 | 1184.2 | 1150.7 | 1116.9 | 1085.9 | 1055.2 | 1025.8 | 997.9 | 970.3
11900 kPa | – | – | – | – | 1086.2 | – | – | – | –
12000 kPa | 1220.8 | 1184.6 | 1151.1 | 1117.2 | – | 1055.5 | 1026.1 | 998.2 | 970.6
12500 kPa | 1221.2 | 1185 | 1151.5 | 1117.6 | 1086.6 | 1055.8 | 1026.5 | 998.5 | 970.9
13000 kPa | 1221.6 | 1185.4 | 1151.9 | 1118 | 1087 | 1056.2 | 1026.8 | 998.8 | 971.2
13500 kPa | 1222 | 1185.8 | 1152.2 | 1118.4 | 1087.3 | 1056.5 | 1027.1 | 999.2 | 971.5
14000 kPa | 1222.4 | 1186.3 | 1152.6 | 1118.7 | 1087.7 | 1056.8 | 1027.4 | 999.4 | 971.7
14500 kPa | 1222.9 | 1186.7 | 1153 | 1119.1 | 1088 | 1057.1 | 1027.8 | 999.7 | 972
14900 kPa | 1223.2 | – | – | – | – | – | – | – | –
15000 kPa | – | 1187.1 | 1153.4 | 1119.4 | 1088.4 | 1057.5 | 1028 | 1000 | 972.3
15500 kPa | 1223.7 | 1187.4 | 1153.8 | 1119.8 | 1088.7 | 1057.8 | 1028.4 | 1000.4 | 972.6
15900 kPa | – | – | – | 1120.1 | – | – | – | – | –
16000 kPa | 1224.1 | 1187.8 | 1154.2 | – | 1089.1 | 1058.1 | 1028.7 | 1000.6 | 972.9
16400 kPa | 1224.5 | – | – | – | – | – | – | – | –
16500 kPa | – | 1188.2 | 1154.6 | 1120.5 | 1089.4 | 1058.4 | 1029 | 1001 | 973.2
16900 kPa | – | – | – | – | – | – | 1029.3 | – | –
17000 kPa | 1224.9 | 1188.6 | 1155 | 1120.9 | 1089.8 | 1058.8 | – | 1001.3 | 973.4
17500 kPa | 1225.4 | 1189.2 | 1155.3 | 1121.3 | 1090.1 | 1059.2 | 1029.7 | 1001.5 | 973.7
17900 kPa | – | – | – | 1121.5 | – | – | – | – | –
18000 kPa | 1225.8 | 1189.5 | 1155.7 | – | 1090.4 | 1059.5 | 1029.9 | 1001.8 | 974
18500 kPa | 1226.1 | 1189.8 | 1156.1 | 1122 | 1090.8 | 1059.8 | 1030.2 | 1002.1 | 974.3
19000 kPa | 1226.6 | 1190.3 | 1156.5 | 1122.4 | 1091.2 | 1060.2 | 1030.6 | 1002.5 | 974.7
19500 kPa | 1227 | 1190.6 | 1156.8 | 1122.7 | 1091.5 | 1060.5 | 1030.9 | 1002.7 | 975
20000 kPa | 1227.5 | – | 1157.2 | 1123.1 | 1091.9 | 1060.8 | 1031.2 | 1003 | –
20100 kPa | – | 1191.1 | – | – | – | – | – | – | 975.4
